In patent US20220039384A1, “SELECTIVE WEED CONTROL WITH HALAUXIFEN OR 4-AMINO-3-CHLORO-5-FLUORO-6-(4-CHLORO-2-FLUORO-3-METHOXYPHENYL) PYRIDINE-2-CARBOXYLIC ACID OR DERIVATIVES THEREOF IN VINEYARDS OR PERENNIAL CROPS” (Corteva Agriscience LLC, priority 2013, published 2022):

What was measured:
Assay type in all cases: in vivo
[1] = tested on: CAPBP (Capsella bursa-pastoris, Shepherd's purse); assay: Field trial, pre-emergence application (February), California vineyards: visual weed control
Source text: (§1) As used herein, selective pre- and post-emergence control of undesirable vegetation means preventing, reducing, killing, or otherwise adversely modifying the development of the undesirable vegetation in the presence of crop plants with limited adverse effect on the crop plants. For example, a broadleaf weed control of 80% (rated visually) with crop injury of less than or equal to 20% (rated visually) would constitute selective control. In some embodiments the adverse effect on crop plants is limited to less than 10% visually rated crop injury. Visual crop injury is a composite rating accounting for all phytotoxic effects including chlorosis, necrosis, growth inhibition, epinasty, delays in maturity and seed or fruit deformity. Visual weed control is a composite rating accounting for reductions in pest plant biomass and/or stand reduction.
(§2) Small plot research experiments were conducted in Fresno, Calif., USA to evaluate the pre-emergence and post-emergence herbicidal weed control activity and the vines crop tolerance to pre-emergence and post-emergence application of Compound I and Compound II to the weeds. Application water volume of 100 to 187 liters per hectare (L/ha) was used for all experiments. All treatments were applied with a standard small plot carbon dioxide (CO2) backpack sprayer. All treatments were tank-mixed with Crop Oil Concentrate (COC), a well known adjuvant, at 2.34 L/ha. Experimental emulsifiable concentrate (EC) formulations were used for Compounds I and II. The dimethylammonium (DMA) salt of glyphosate was used in all trials. Pindar® GT is a commercial formulation containing a pre-mix of penoxsulam+oxyfluorfen (10+476 grams of active ingredient per liter (g ai/L), respectively). Vine crop stage was dormant (no leaves on the vines during the winter) or early spring growth at the time of Compound I or Compound II application. Generally, weeds were not emerged for the pre-emergence treatments or were at the two to six-leaf stage at the time of the post-emergence herbicide application.
(§3) Tables 1, 2 and 6 provide weed control results from pre-emergence applications of Compounds I and/or II prior to weed emergence; Tables 4, 7 and 8 provide weed control results from post-emergence applications of Compounds I and/or II applied to actively growing weeds; Tables 3 and 5 provide vine response data from pre-emergence and post-emergence applications of Compound I respectively.

[2] = tested on: AMSIN (Amsinckia intermedia, coast fiddleneck); assay: as above
Source text: as §1, §2, §3

[3] = tested on: CLNCM (Calandrinia ciliata, rock purslane); assay: as above
Source text: as §1, §2, §3

[4] = tested on: EROCI (Erodium cicutarium, redstem filaree); assay: Field trial, pre-emergence dormant application (December), California vineyards: visual weed control; conditions: applied prior to weed emergence
Source text: as §1, §2, §3

[5] = tested on: CAPBP (Capsella bursa-pastoris, Shepherd's purse); assay: as above; conditions: applied prior to weed emergence
Source text: as §1, §2, §3

[6] = tested on: POAAN (Poa annua, annual bluegrass); assay: as above; conditions: applied prior to weed emergence
Source text: as §1, §2, §3

[7] = tested on: HORMU (Hordeum murinam, wall barley); assay: as above; conditions: applied prior to weed emergence
Source text: as §1, §2, §3

[8] = tested on: PANCA (Panicum capillare, witchgrass); assay: as above; conditions: applied prior to weed emergence
Source text: as §1, §2, §3

COC(=O)c1nc(-c2ccc(Cl)c(OC)c2F)cc(N)c1Cl [I—Me, methyl 4-amino-3-chloro-6-(4-chloro-2-fluoro-3-methoxyphenyl)pyridine-2-carboxylate]
% Visual Control 48 DAA CAPBP ([1]; 2.5 g ae/ha): 50% | % Visual Control 48 DAA CAPBP ([1]; 5 g ae/ha): 76.7% | % Visual Control 48 DAA CAPBP ([1]; 10 g ae/ha): 90% | % Visual Control 48 DAA AMSIN ([2]; 2.5 g ae/ha): 25% | % Visual Control 48 DAA AMSIN ([2]; 5 g ae/ha): 43.3% | % Visual Control 48 DAA AMSIN ([2]; 10 g ae/ha): 36.7% | % Visual Control 48 DAA CLNCM ([3]; 2.5 g ae/ha): 27.6% | % Visual Control 48 DAA CLNCM ([3]; 5 g ae/ha): 43.3% | % Visual Control 48 DAA CLNCM ([3]; 10 g ae/ha): 86.7% | % Visual Control 90 DAA EROCI ([4]; 10 g ae/ha): 58% | % Visual Control 184 DAA EROCI ([4]; 10 g ae/ha): 47% | % Visual Control 90 DAA EROCI ([4]; 20 g ae/ha): 72% | % Visual Control 184 DAA EROCI ([4]; 20 g ae/ha): 52% | % Visual Control 90 DAA EROCI ([4]; 40 g ae/ha): 82% | % Visual Control 184 DAA EROCI ([4]; 40 g ae/ha): 55% | % Visual Control 90 DAA CAPBP ([5]; 10 g ae/ha): 62% | % Visual Control 90 DAA CAPBP ([5]; 20 g ae/ha): 58% | % Visual Control 90 DAA CAPBP ([5]; 40 g ae/ha): 82% | % Visual Control 90 DAA POAAN ([6]; 10 g ae/ha): 58% | % Visual Control 184 DAA POAAN ([6]; 10 g ae/ha): 48% | % Visual Control 90 DAA POAAN ([6]; 20 g ae/ha): 65% | % Visual Control 184 DAA POAAN ([6]; 20 g ae/ha): 28% | % Visual Control 90 DAA POAAN ([6]; 40 g ae/ha): 63% | % Visual Control 184 DAA POAAN ([6]; 40 g ae/ha): 47% | % Visual Control 90 DAA HORMU ([7]; 10 g ae/ha): 100% | % Visual Control 184 DAA HORMU ([7]; 10 g ae/ha): 90% | % Visual Control 90 DAA HORMU ([7]; 20 g ae/ha): 100% | % Visual Control 184 DAA HORMU ([7]; 20 g ae/ha): 88% | % Visual Control 90 DAA HORMU ([7]; 40 g ae/ha): 100% | % Visual Control 184 DAA HORMU ([7]; 40 g ae/ha): 92% | % Visual Control 184 DAA PANCA ([8]; 10 g ae/ha): 60% | % Visual Control 184 DAA PANCA ([8]; 20 g ae/ha): 33.3% | % Visual Control 184 DAA PANCA ([8]; 40 g ae/ha): 63.3%
